Key:
L6 myotubes = experiment: Glucose assimilation in muscle cells (3H-2-desoxyglucose uptake); format: cell-based; details: for effect on glucose assimilation together with insulin, in words: 2.5 mM with insulin 200 nM; for effect on glucose assimilation, in words: compared with other enantiomer or insulin (200 nM); for Glucose Assimilation S / Glucose Assimilation R: table 1; for Glucose Assimilation Insulin: insulin 200 nM
Experimental: The tissue muscle cells (L6 myotubes) were prepared in 24-bole plates and differentiated. After incubation with the test substances, an assay was carried out to determine hexose assimilation (^3 H-2-desoxyglucose, 10 μM, 10 minutes). […] After the cells were washed and then lysed with NaOH, the radioactivity absorbed was measured in a counter. Parallel experimental batches were carried out with cytochalasin-B, in order to determine the glucose transporter-dependent glucose translocations.
The results can be expressed as pmol/min×mg of protein.

[1] = test system: GLUT1 Glucose Transporters; experiment: Translocation of GLUT1 glucose transporters in L6 myotubes (Western blot of cell fractions); format: cell-based; details: for GLUT1 translocation, Light Microsomal Fraction / GLUT1 translocation, Plasma Membrane: one hour, control 1.00
Experimental: (§1) L6 myotubes in 15 cm dishes (n=4 to 5) were enlisted and incubated for one hour with 2.5 mM lipoate in MEM with 5 mM of glucose and 2% of fetal bovine serum. The cells were removed, homogenized and worked up in fractions (4° C.). The working up was carried out in an HEPES buffer with a defined addition of protease inhibitor. The cell fractions were obtained in 6 defined centrifuging steps. The fractions were added to a 10% polyacrylamide gel for a Western Blot analysis. The glucose transporters were determined with anti-GLUT1 and anti-GLUT4 antibodies using iodine-labeled protein A and autoradiographic detection.

[2] = test system: streptozotocin-induced diabetes; experiment: Diabetes induced tissue damage, streptozotocin-induced diabetes; format: in vivo, Wistar rats; details: for mortality in comparison to the control / pathologically changed parameter glycosilated hemoglobin, in words / pathologically changed parameter protein oxidation, in words: streptozotocin-induced diabetes; for % Glycosilated Hemoglobin: 1.65 g/kg of food for 14 weeks, streptozotocin diabetic rats, control 9.7 ± 1.5
Experimental: Thioct acid enantiomers were administered for 14 weeks by mouth, together with the food (1.65 g/kg of food), to female Wistar rats (n=3 to 6/group) in separate groups.
In the eighth week, streptozotocin diabetes was induced in the animals. Six weeks after the induction of the diabetes, the surviving animals were sacrificed. Tissue was taken and analyzed.

GLUT1 = experiment: Cellular content of GLUT1 glucose transporters in L6 myotubes; format: cell-based; details: for Content of GLUT1: L6 myotubes, 2.5 mM, 4 hours of incubation, control 1.00; for cellular content of GLUT1, in words: after four hours of incubation
Experimental: (§2) L6 myotubes were incubated for 4 hours with 2.5 mM lipoic acid enantiomers in an MEM medium with 2% fetal bovine serum and 5 mM glucose. The glucose transporters were detected as described above. The membrane fraction is obtained after a single centrifugation at 210,000 g.

GLUT 4 = experiment: Translocation of GLUT4 glucose transporters in L6 myotubes; format: cell-based
Experimental: as §1

GLUT4 = experiment: Cellular content of GLUT4 glucose transporters in L6 myotubes; format: cell-based; details: for Content of GLUT4: 2.5 mM, 4 hours of incubation, control 1.00; for cellular content of GLUT4, in words: after four hours of incubation
Experimental: as §2

pyruvate dehydrogenase = target: T1, pyruvate dehydrogenase (Rattus norvegicus, UniProt P08461+P26284+P49432+Q6P6R2); experiment: Pyruvate dehydrogenase activity after chronic administration in tissues of the spontaneously diabetic rat; format: in vivo; details: for Pyruvate dehydrogenase activity, trend: spontaneously diabetic rats, 50 mg/kg daily in tail vein, heart muscle, trend after two administrations
T1 construct: The tissue was homogenized; from tissue; host or cells: heart muscle of spontaneously diabetic BB rats
Experimental: After the manifestation of the diabetes, spontaneously diabetic rats (BB-Wol BB, of the Moellegard Company, Denmark, n=10/group) received 0.3 mL of neutral 0.12 M (corresponding to 50 mg/kg of body weight) R-(+)-α-lipoic acid or S-(-)-α-lipoic acid daily, administered in the vein of the tail. A control group received physiological salt solution. After 7 days, the animals were sacrificed. The pyruvate dehydrogenase activity was determined in the heart muscle. The tissue was homogenized.
Pyruvate+NAD^+ +CoA→Acetyl-CoA+CO2 +NADH+H^+
The extinction of the reduced coenzyme is measured at 339 nm in cuvettes with a Shimadzu UV 210 Detector at 37° C. The isolation of the enzyme complex (R. Koeplin, Ph.D. Thesis, University of Tuebingen, FRG, 1988, C. J. Stanley, R. N. Perham, Biochem. J. 191, 147-154, 1980) and the enzyme assay (O. H. Lowry et al. J. Biol. Chem. 256, 815-822, 1951) were carried out as described. The protein was measured by the method of Loary (N. Bashan et al., Am. J. Physiol. m262 (Cell Physiol. 31): C682-690, 1992).

alloxan-induced diabetes = details: animal model; cited from earlier work
rat diaphragms = details: in vitro, cited from earlier work

T1 sequence (P26284 30-390): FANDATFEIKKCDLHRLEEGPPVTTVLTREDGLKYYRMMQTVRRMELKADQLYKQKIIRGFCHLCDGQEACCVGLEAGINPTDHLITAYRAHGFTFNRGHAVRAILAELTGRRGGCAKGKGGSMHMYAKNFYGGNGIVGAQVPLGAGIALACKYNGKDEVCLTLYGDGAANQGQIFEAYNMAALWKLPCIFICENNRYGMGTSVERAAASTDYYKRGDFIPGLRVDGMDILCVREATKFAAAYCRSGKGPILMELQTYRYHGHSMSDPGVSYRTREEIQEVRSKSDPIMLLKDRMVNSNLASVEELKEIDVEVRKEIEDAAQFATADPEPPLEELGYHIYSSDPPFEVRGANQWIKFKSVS
T1 sequence (P49432 31-359): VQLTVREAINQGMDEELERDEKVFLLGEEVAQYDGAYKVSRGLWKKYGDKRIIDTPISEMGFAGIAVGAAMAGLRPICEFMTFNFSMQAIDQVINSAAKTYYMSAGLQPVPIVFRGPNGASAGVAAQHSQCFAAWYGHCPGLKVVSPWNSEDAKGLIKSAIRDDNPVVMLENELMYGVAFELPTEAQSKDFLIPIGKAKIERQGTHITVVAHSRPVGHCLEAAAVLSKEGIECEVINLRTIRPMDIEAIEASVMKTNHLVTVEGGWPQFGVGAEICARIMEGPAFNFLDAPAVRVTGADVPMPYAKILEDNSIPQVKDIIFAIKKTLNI
T1 sequence (P08461 86-632 limits assumed): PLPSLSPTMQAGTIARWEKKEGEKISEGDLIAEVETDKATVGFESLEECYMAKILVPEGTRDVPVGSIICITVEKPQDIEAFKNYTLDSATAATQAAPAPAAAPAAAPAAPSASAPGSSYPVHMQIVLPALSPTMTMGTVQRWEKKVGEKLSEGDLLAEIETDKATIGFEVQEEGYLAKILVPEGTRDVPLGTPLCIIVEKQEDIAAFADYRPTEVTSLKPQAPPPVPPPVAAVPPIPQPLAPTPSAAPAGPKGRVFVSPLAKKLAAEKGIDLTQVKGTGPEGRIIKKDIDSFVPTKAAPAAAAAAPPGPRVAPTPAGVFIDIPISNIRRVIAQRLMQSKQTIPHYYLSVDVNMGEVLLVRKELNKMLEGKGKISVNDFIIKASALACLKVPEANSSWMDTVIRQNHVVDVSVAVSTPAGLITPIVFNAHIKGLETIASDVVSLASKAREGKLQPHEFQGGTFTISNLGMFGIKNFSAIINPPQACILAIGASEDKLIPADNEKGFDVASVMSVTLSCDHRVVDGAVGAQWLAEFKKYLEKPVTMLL
T1 sequence (Q6P6R2 36-509): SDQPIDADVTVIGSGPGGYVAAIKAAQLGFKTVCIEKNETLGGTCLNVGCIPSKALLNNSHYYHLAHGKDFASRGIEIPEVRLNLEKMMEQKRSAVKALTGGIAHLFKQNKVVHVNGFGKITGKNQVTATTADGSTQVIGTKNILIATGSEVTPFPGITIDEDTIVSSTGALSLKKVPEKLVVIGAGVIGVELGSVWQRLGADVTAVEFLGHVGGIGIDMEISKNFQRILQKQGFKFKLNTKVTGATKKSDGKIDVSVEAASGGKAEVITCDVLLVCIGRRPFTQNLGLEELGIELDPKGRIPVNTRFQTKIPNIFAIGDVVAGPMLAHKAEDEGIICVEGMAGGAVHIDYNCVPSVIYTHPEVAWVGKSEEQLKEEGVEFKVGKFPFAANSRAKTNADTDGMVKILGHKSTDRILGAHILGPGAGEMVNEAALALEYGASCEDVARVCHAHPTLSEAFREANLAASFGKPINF

Row | Compound | effect on glucose assimilation together with insulin, in words (L6 myotubes) | effect on glucose assimilation, in words (L6 myotubes; 2.5 mM) | translocation of glucose transporters Glut 1 from the cytosol to the plasma membrane, in words [1] | GLUT1 translocation, Light Microsomal Fraction ([1]; table 4, enantiomers 2.5 mM) [relative units] | GLUT1 translocation, Plasma Membrane ([1]; table 4, enantiomers 2.5 mM) [relative units] | GLUT1 translocation, Light Microsomal Fraction ([1]; table 5, enantiomers 2.5 mM) [relative units] | mortality in comparison to the control [2] | pathologically changed parameter glycosilated hemoglobin, in words [2] | pathologically changed parameter protein oxidation, in words [2] | % Glycosilated Hemoglobin ([2]; table 7) [%] | % Glycosilated Hemoglobin ([2]; table 8) [%] | % Glycosilated Hemoglobin ([2]; table 9) [%] | Content of GLUT1 (GLUT1) [arbitrary units] | cellular content of GLUT1, in words (GLUT1) | translocation of glucose transporters GLUT 4 from the cytosol to the plasma membrane, in words (GLUT 4) | Content of GLUT4 (GLUT4; L6 myotubes) [arbitrary units] | cellular content of GLUT4, in words (GLUT4) | Pyruvate dehydrogenase activity, trend (pyruvate dehydrogenase) | also measured
1 | O=C(O)CCCC[C@H]1CCSS1 [S-(-)-α-lipoic acid, reference compound] | decreases the effect of insulin | less effective | has no effect or has an inhibiting effect | 0.38 ± 0.09 | 0.93 ± 0.37 | 0.38 ± 0.09 | increased | lesser effect to no effect | lesser effect to no effect | 10.7 ± 2.1 | 10.7 ± 2.1 | 10.7 ± 2.1 | 1.08 ± 0.01 | has no effect or lowers the cellular content | has no effect or has an inhibiting effect | 0.79 ± 0.47 | has no effect or lowers the cellular content | Lowered | Glucose Assimilation S (L6 myotubes; 2.5 mM, incubation time 15): 16.3 ± 0.3 pmol/mg/min; Glucose Assimilation S (L6 myotubes; 2.5 mM, incubation time 30): 14.8 ± 0.7 pmol/mg/min; Glucose Assimilation S (L6 myotubes; 2.5 mM, incubation time 60): 21.6 ± 0.4 pmol/mg/min; Glucose Assimilation S (L6 myotubes; 2.5 mM, incubation time 120): 20.5 ± 0.8 pmol/mg/min; Glucose Assimilation S-(-)α-Liponic Acid (L6 myotubes; table 3, 2.5 mM, incubation 15 min): 14.8 ± 0.4 pmol/mg/min; Glucose Assimilation S-(-)α-Liponic Acid (L6 myotubes; table 3, 2.5 mM, incubation 30 min): 13.3 ± 0.4 pmol/mg/min; Glucose Assimilation S-(-)α-Liponic Acid (L6 myotubes; table 3, 2.5 mM, incubation 60 min): 16.0 ± 0.2 pmol/mg/min; total content of glucose transporters in the cell (GLUT4), in words (GLUT4; translocation experiment, L6 myotubes): appears to lower; pyruvate dehydrogenase, effect in animal experiments (pyruvate dehydrogenase; animal experiments): inhibited
2 | O=C(O)CCCCC1CCSS1 (racemic) [R,S-(+,-)-α-lipoic acid] | – | – | – | – | – | – | – | – | – | – | – | – | – | – | – | – | – | – | effect on blood sugar (alloxan-induced diabetes): blood sugar-lowering effect; effect relative to that of insulin (rat diaphragms; Haugaard): additive; glucose assimilation by muscles (rat diaphragms; racemate from Calbiochem): increases
3 | Insulin: Insulin, added at a concentration of 200 nM | – | – | stimulates | – | 1.07 ± 0.14 | – | – | – | – | – | – | – | – | – | stimulates | – | – | – | Glucose Assimilation Insulin (L6 myotubes; table 2, incubation 15 min): 24.7 ± 0.9 pmol/mg/min; Glucose Assimilation Insulin (L6 myotubes; table 2, incubation 30 min): 21.6 ± 0.4 pmol/mg/min; Glucose Assimilation Insulin (L6 myotubes; table 2, incubation 60 min): 23.7 ± 0.5 pmol/mg/min; Glucose Assimilation Insulin (L6 myotubes; table 3, incubation 15 min): 17.7 ± 0.3 pmol/mg/min; Glucose Assimilation Insulin (L6 myotubes; table 3, incubation 30 min): 16.3 ± 0.5 pmol/mg/min; Glucose Assimilation Insulin (L6 myotubes; table 3, incubation 60 min): 22.3 ± 0.5 pmol/mg/min; GLUT1 translocation, Plasma Membrane ([1]; table 5, enantiomers 2.5 mM): 1.07 ± 0.14 relative units
4 | O=C(O)CCCC[C@@H]1CCSS1 [R-(+)-α-lipoic acid] | not additive | comparable to that of insulin | stimulates | 0.46 ± 0.06 | 1.56 ± 0.25 | 0.46 ± 0.06 | reduced | corrects | corrects | 8.4 ± 1.3 | 8.4 ± 1.3 | 8.4 ± 1.3 | 1.81 ± 0.01 | increases | stimulates | 1.55 ± 0.24 | increases | increased | stimulation of glucose assimilation compared to the S enantiomer, factor (L6 myotubes; 2.5 mM): greater than 2; Glucose Assimilation R (L6 myotubes; 2.5 mM, incubation time 15): 16.7 ± 0.6 pmol/mg/min; Glucose Assimilation R (L6 myotubes; 2.5 mM, incubation time 30): 15.9 ± 0.9 pmol/mg/min; Glucose Assimilation R (L6 myotubes; 2.5 mM, incubation time 60): 26.1 ± 0.9 pmol/mg/min; Glucose Assimilation R (L6 myotubes; 2.5 mM, incubation time 120): 27.0 ± 0.4 pmol/mg/min; Glucose Assimilation R-(+)-α-Liponic Acid (L6 myotubes; table 2, 2.5 mM, incubation 15 min): 23.2 ± 0.5 pmol/mg/min; Glucose Assimilation R-(+)-α-Liponic Acid (L6 myotubes; table 2, 2.5 mM, incubation 30 min): 21.1 ± 0.4 pmol/mg/min; Glucose Assimilation R-(+)-α-Liponic Acid (L6 myotubes; table 2, 2.5 mM, incubation 60 min): 25.7 ± 0.5 pmol/mg/min
